Laboratory results: patent publication US7387998B2, “STQ peptides” (New York University, priority 2003, dated 2008)
Where a SMILES comes first, the peptide text is derived from it.

How the values were obtained:
[1] = test system: Human RPE cells on denatured laminin; assay: RPE cell adhesion to denatured laminin; type: cell-based; conditions: for blockade of RPE cell adhesion to denatured laminin: 30 min attachment, crystal violet OD 600 nm
Method: In vitro cell adhesion assays were conducted to determine whether the STQ-peptides bind to functional epitopes within denatured laminin that regulate cellular adhesion. Non-tissue culture treated 48-well plates were coated with denatured laminin. Human RPE cells were allowed to attach to the coated wells in the absence of STQ-peptide, in the presence of STQ-peptide at a concentration of 100 μg/ml, and in the presence of STQ-peptide at a concentration of 200 μg/ml.
(§1) Human denatured laminin (25 μg/ml) was immobilized on 48-well non-tissue culture treated plates. Wells were washed and incubated with 1% BSA (bovine serum albumin) in PBS (phosphate-buffered saline) for one hour at 37° C. Subconfluent RPE cells were harvested, washed, and resuspended in adhesion buffer containing RPMI-1640 medium, 1 mM MgCl2, 0.2 mM MnCl2, and 0.5% BSA. RPE cells (10^5) were resuspended in 200 μl of the adhesion buffer in the presence or absence of STQ-peptide at a concentration of 100 μg/ml or 200 μg/ml, and were added to each well and allowed to attach for 30 minutes at 37° C. The unattached cells were removed and the attached cells were stained for 10 minutes with crystal violet as described by Petitclerc, et al., Cancer Res. 1999; 59:2724-2730. The wells were washed three times with PBS and cell-associated crystal violet was eluted by addition of 100 μl of 10% acetic acid. Cell adhesion was quantified by measuring the optical density of eluted crystal violet at a wavelength of 600 nm.
A set of non-tissue culture treated 48-well plates were coated with native laminin in the presence of different concentrations of STQ-peptide according to the method described in Example 2 and by Petticlerc, et al., Cancer Res. 1999; 59:2724-2730. Another set of non-tissue culture treated plates were coated with denatured laminin in the presence of different concentrations of STQ-peptide. […] STQ-peptide had little effect on RPE cell adhesion to the wells coated with native laminin at any concentration of STQ-peptide tested (FIG. 3).

[2] = test system: bFGF-induced angiogenesis in chorioallantoic membrane (CAM); assay: bFGF-induced angiogenesis in the chick CAM model; type: in vivo; conditions: single intravenous injection 100 ug/embryo
Description: One angiogenesis assay measures angiogenesis in the chick chorioallantoic membrane (CAM) and is referred to as the CAM assay. The CAM assay is well known among those of ordinary skill in the art and has been used to measure both angiogenesis and neovascularization of tumor tissues (Ausprunk et al., Am. J. Pathol. 1975; 79:597-618 and Ossonski et al., Cancer Res. 1980; 40:2300-2309).
Angiogenesis was induced within the chorioallantoic membrane (CAM) of 10-day old chick embryos with bFGF. Twenty-four hours later, 8-10 of the embryos were treated with a single intravenous injection of STQ-peptide (100 ug/embryo). At the end of a 3-day incubation period, the CAM tissues were removed for analysis. […] The single injection of STQ-peptide inhibited bFGF by greater than 95% (FIG. 4). […] Eight to ten chick embryos were tested in each of the two groups, and the experiment was repeated three times for a total of 24-30 chick embryos tested.

[3] = test system: RPE cells on native laminin; assay: RPE cell adhesion to native laminin; type: cell-based, human; conditions: any concentration of STQ-peptide tested (FIG. 3)
Method: as §1
A set of non-tissue culture treated 48-well plates were coated with native laminin in the presence of different concentrations of STQ-peptide according to the method described in Example 2 and by Petticlerc, et al., Cancer Res. 1999; 59:2724-2730. […]

[4] = test system: metastatic B16 melanoma cells; assay: B16 melanoma metastasis in chick embryo lungs; type: in vivo; conditions: 100 ug/embryo intravenously with cells; 7 days incubation; versus no-STQ-peptide group
Method: Twelve-day old chick embryos (obtained from SPAFAS, North Franklin, Conn.) were injected intravenously with metastatic B16 melanoma cells (Chambers, et al., J. Natl. Cancer Inst. 1992; 84:797-803) in the presence or absence of STQ-peptide (100 ug/embryo). For each experiment, eight to ten chicks were tested under each set of conditions, and the experiment was repeated three times. The embryos were incubated for 7 days and then sacrificed. The chick lungs were analyzed for metastasis. B16 melanoma metastases appeared as discrete black lesions. The metastases were quantified by counting the B16 tumor lesions on the surface of the chick lungs for the STQ-peptide and no-STQ-peptide groups. B16 melanoma metastasis was inhibited by greater than 95% in the STQ-peptide group as compared to the no-STQ-peptide group (FIG. 5).

[5] = test system: Human M21 melanoma cells on denatured laminin; assay: M21 melanoma cell adhesion to denatured laminin; type: cell-based; conditions: STQ-peptide-S 50 μg/ml
Method: as §1
(§2) An adhesion assay was performed according to the method described in Example 2 and by Petticlerc, et al., Cancer Res. 1999; 59:2724-2730. Non-tissue culture treated 48-well plates were coated with denatured laminin in the absence of STQ-peptide-S and in the presence of STQ-peptide-S at a concentration of 50 μg/ml. […]

[6] = test system: murine B16 melanoma cells on denatured laminin; assay: B16 melanoma cell adhesion to denatured laminin; type: cell-based; conditions: STQ-peptide-S 50 μg/ml
Method: as §1, §2

Compound | blockade of RPE cell adhesion to denatured laminin ([1]; STQ-peptide 100 μg/ml) | blockade of RPE cell adhesion to denatured laminin ([1]; STQ-peptide 200 μg/ml) | inhibition of RPE cell adhesion to wells coated with denatured laminin ([1]; different concentrations of STQ-peptide (FIG. 3)) | adverse effects following injection ([2]; chick embryos) | inhibition of bFGF-induced angiogenesis (branching vessels) ([2]; 24 h after bFGF, 3-day incubation) | effect on RPE cell adhesion to wells coated with native laminin [3] | inhibition of B16 melanoma metastasis (lung surface lesions) [4] | blockade of M21 melanoma cell adhesion to denatured laminin [5] | blockade of B16 melanoma cell adhesion to denatured laminin [6]
CC[C@H](C)[C@H](NC(=O)[C@H](CC(C)C)NC(=O)[C@H](CO)NC(=O)[C@H](CC(C)C)NC(=O)[C@H](CC(C)C)NC(=O)[C@H](CCC(N)=O)NC(=O)[C@H](C)NC(=O)[C@H](CC(N)=O)NC(=O)[C@H](CCC(N)=O)NC(=O)[C@@H](NC(=O)[C@H](CO)NC(=O)[C@H](CS)NC(=O)CNC(=O)CNC(=O)[C@@H](N)CCCCN)[C@@H](C)O)C(=O)N[C@H](C(=O)NCC(=O)N[C@@H](CCCCN)C(=O)N[C@@H](C)C(=O)O)C(C)C [STQ-peptide, NH2-K-G-G-C-S-T-Q-N-A-Q-L-L-S-L-I-V-G-K-A-COOH] (H-KGGCSTQNAQLLSLIVGKA-OH) | greater than 95% | greater than 95% | concentration dependent inhibition | No adverse effects | greater than 95% | little effect | greater than 95% |  | 
NH2-K-G-G-S-T-Q-N-A-Q-L-L-S-L-I-V-G-K-A-COOH (H-KGGSTQNAQLLSLIVGKA-OH) [STQ-peptide-S] |  |  |  |  |  |  |  | approximately 80% | approximately 80%
